Results as given in US7671042B2, “Pharmaceutical compositions containing cyclodextrins and taxoids” (priority 1997, dated 2010).
Like-named read-outs stand apart in the source and are kept apart here.

Tests used:
beagle dogs = test: Cardiovascular and respiratory effects following intravenous administration in anaesthetised beagle dogs; format: in vivo, beagle dog
Description: The following parameters were recorded or derived and served as indicators of the functional status of the various elements within the cardiovascular and respiratory systems. The units of measurement are stated in parenthesis.
Anaesthesia was induced by i.v. injection of sodium thiopentone and maintained i.v. by a mixture of α-chloralose and pentobarbitone sodium given as required. Body temperature was maintained.
The trachea was cannulated and the canule connected to a pneumotach screen to allow measurement of tidal volume (ml) and the derived parameters of respiration rate (br/min) and minute volume (ml). Catheters were introduced into the right femoral artery and a cephalic vein to facilitate measurements of blood pressure and the administration of vehicle, test substances and anaesthetic respectively. The femoral artery was connected to a heparin/saline filled pressure transducer, coupled to a Grass 7E polygraph. […]
Following a 30 minute stabilization period, the vehicle was administered i.v. at a dose volume of 7.0 ml/kG over a period of 15 minutes. […] The parameters were monitored for a least 45 minutes from the start of infusion. […]
All parameters including high resolution (50 mm/sec) recordings of the ECG were measured at 5 minute intervals during the stabilization period and at 0.5, 1, 2 and 5 minutes intervals post-dose following vehicle and drug administration. […]

[1] = aqueous
[2] = cited from earlier work

Compound: CC(=O)O[C@H]1C(=O)[C@@]2(C)[C@H]([C@H](OC(=O)c3ccccc3)[C@]3(O)C[C@H](OC(=O)[C@H](O)[C@@H](NC(=O)c4ccccc4)c4ccccc4)C(C)=C1C3(C)C)[C@]1(OC(C)=O)CO[C@@H]1C[C@@H]2O [paclitaxel]
- outcome of i.v. administration (beagle dogs; 6 and 60 mg/m^2 in Cremophor ELP:ethanol 1:1, i.v., animals 1 and 2, administration discontinued): death of the animals
- reaction to intravenous administration (beagle dogs; dog, in vivo, iv): anaphylactic type reaction
- Dissolved Paclitaxel ([1]; 2% w/v acetyl-γ-cyclodextrin): 4.0 µg/mL
- Dissolved Paclitaxel ([1]; 5% w/v acetyl-γ-cyclodextrin): 8.8 µg/mL
- Dissolved Paclitaxel ([1]; 10% w/v acetyl-γ-cyclodextrin): 25.0 µg/mL
- Dissolved Paclitaxel ([1]; 20% w/v acetyl-γ-cyclodextrin): 48.0 µg/mL
- Dissolved Paclitaxel ([1]; 40% w/v acetyl-γ-cyclodextrin): 170 µg/mL
- Dissolved Paclitaxel ([1]; 40% w/v acetyl-γ-cyclodextrin, listed as Paclitaxel): 170.0 µg/mL
- aqueous solubility ([2]; ambient temperature): about 0.0005 mg/ml
- aqueous solubility ([2]; room temperature): about 0.5 μg/ml
